Measured values taken from US20060014193A1, “Nucleoside phosphoramidates and nucleoside phosphoramidases” (priority 2004, published 2006).

Legend:
Rabbit HINT1 = target: T1, Rabbit HINT1 (Oryctolagus cuniculus, UniProt P80912); assay: 31P NMR phosphoramidase assay of purified protein; format: biochemical; settings: 10 mM substrate, pH 7.2, 22° C.
T1 construct: made in house; host or cells: E. coli hinT deletion mutant
Method: (§1) Phosphoramidase activity in cell lysates was measured by the ^1H-decoupling mode of phosphorus-31 NMR spectroscopy (Varian VAC-300 spectrometer), which can clearly distinguish the substrate, AMP-NH2, and the product, adenosine 5′-monophosphate (AMP). NMR spectrometry is suitable for quantitation by integration of the area under the peak, which is proportional to the amount of nuclei present. The relative ratio of peak areas can be used to calculate the amount of turnover corrected based on a standard curve.
(§2) Cell lysates from E. coli Tuner(DE3)pLacI cells (Novagen) were obtained by treatment with lysozyme (1 mg/ml) and the DNA was precipitated by protamine sulfate followed by centrifugation to remove cell debris. The supernatant was dialyzed extensively against Buffer A (20 mM Tris (pH 7.0); 1 mM EDTA; 1 mM DTT, 0.01 mM PMSF) to remove cellular phosphates and nucleotides. Phosphate free cell lysates (0.75 mg total protein) were incubated with 5 mM AMP-NH2 in 0.5 ml reaction buffer (0.5 mM MgCl2, 20 mM HEPES (pH 7.2)) at 37° C. for intervals of 15 min, 30 min, and 12 h. The reactions were terminated by snap freezing in a dry ice/acetone slush bath and lyophilized for 5 h. The samples were then dissolved in NMR buffer (600 μL, 50 mM EDTA, 20 mM HEPES (pH 7.2), and 1 mM TMP (trimethylphosphate, internal standard)) and the insoluble portion was spun down by centrifugation at 12,500×g for 5 min. A ^31P NMR spectrum was then collected for the supernatant. For the low pH control experiment, 10 mM AMP-NH2 in reaction buffer (500 μL, pH 2.0) was incubated at 37° C. for 12 h and the 31p signal was detected under the same conditions.
(§3) Five recombinant purified proteins were tested with three commercial available compounds (Sigma): AMP-NH2, adenosine 5′-monophosphomorpholidate (AMP-Mor), and guanosine 5′-monophosphomorpholidate (GMP-Mor) (FIG. 1). The compounds (10 mM) were incubated with proteins (2.5-10 μg) in the reaction buffer (500 μL, 0.5 mM MgCl2, 20 mM HEPES (pH 7.2)) at 22° C. for intervals of 36 and 66 min. The reactions were quenched by adding 5 M NaOH (20 μL), followed by snap freezing in a dry ice/acetone slush bath, and lyophilized. The sample preparation for ^31P NMR measurement was as described above for the cell-lysate experiment except that the pH was adjusted by the addition of 12 μL 6 M HCl before NMR spectra were collected.

Human Hint1-DHFR = target: T2, Human Hint1-DHFR (UniProt P0ABQ4+P49773); assay: 31P NMR phosphoramidase assay of purified protein; format: biochemical; settings: 10 mM substrate, pH 7.2, 22° C.
T2 construct: made in house; host or cells: E. coli (following the procedure for the hinT plasmid)
Method: as §1, §2, §3

hHINT1 = hHINT1 (Homo sapiens, UniProt P49773); assay: 31P NMR phosphoramidase assay of purified protein; format: biochemical; settings: 10 mM substrate, pH 7.2, 22° C.
Method: as §1, §2, §3

E. coli hinT-DHFR = target: T3, E. coli hinT-DHFR (Escherichia coli, UniProt P0ABQ4+P0ACE7); assay: 31P NMR phosphoramidase assay of purified protein; format: biochemical; settings: 10 mM substrate, pH 7.2, 22° C.
T3 construct: made in house; host or cells: E. coli Tuner(DE3)pLacI
Method: as §1, §2, §3

E. coli hinT = target: T4, E. coli hinT (Escherichia coli, UniProt P0ACE7); assay: 31P NMR phosphoramidase assay of purified protein; format: biochemical; settings: 10 mM substrate, pH 7.2, 22° C.
T4 sequence (P0ACE7 1-119): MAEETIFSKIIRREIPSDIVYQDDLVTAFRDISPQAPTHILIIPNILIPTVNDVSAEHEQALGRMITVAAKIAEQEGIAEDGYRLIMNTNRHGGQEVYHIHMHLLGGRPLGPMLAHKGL
Method: as §1, §2, §3

ycfF = target: T5, ycfF (Escherichia coli, UniProt P0ACE7); assay: Catalytic activity (velocity) of cloned, purified phosphoramidase with AMPNH2; format: biochemical, E. coli; settings: pH 7.2, room temperature, 10 mM AMPNH2
T5 construct: made in house
Method: The putative bacterial phosphoramidase was cloned and over-expressed as described for the human homologue, and found to be a nucleoside phosphoramidase.
Velocity of the enzymes was determined at pH 7.2 at room temperature in the presence of 10 mM AMPNH2.

[1] = target: T6, BL21 Star (WT) cell lysates (Escherichia coli, UniProt P0ACE7); assay: 31P NMR phosphoramidase activity in cell lysates; format: biochemical, E. coli; settings: for Specific activity: 0.5 mg protein
T6 construct: endogenous in cells; host or cells: E. coli BL21 Star
Method: as §1
as §2, with “Phosphate free cell lysates (0.75 mg total protein) were incubated with 5 mM AMP-NH2 in 0.5 ml reaction buffer (0.5 mM MgCl2, 20 mM HEPES (pH 7.2)) at 37° C. for intervals of 15 min, 30 min, and 12 h.” left out
To determine if E. coli hinT is solely responsible of the observed lysates' phosphoramidase activity, a mutant strain, BB1, in which the hinT gene was replace with the chloramphenicol resistance marker, was constructed. The phosphoramidase activities of the wild-type E. coli BL21 Star strain and the mutant strain lysates were determined (Table 3). […] (Table 2). Therefore, the adenosine phosphoramidase activity observed for E. coli cell lysates appears to be totally dependent on hinT.

Nc1ncnc2c1ncn2[C@@H]1O[C@H](COP(N)(=O)O)[C@@H](O)[C@H]1O [AMP-NH2, Adenosine 5′-monophosphoramidate]
Specific activity (Rabbit HINT1): 70.0 ± 1.3 nmol nmol^−1 min^−1 | Specific activity (Human Hint1-DHFR): 388 ± 45 nmol nmol^−1 min^−1 | Specific activity (hHINT1): 196 ± 33 nmol nmol^−1 min^−1 | Specific activity (E. coli hinT-DHFR): 753 ± 2 nmol nmol^−1 min^−1 | Specific activity (E. coli hinT): 526 ± 27 nmol nmol^−1 min^−1 | Velocity (ycfF): 14.19 nmol/µg/min | Specific activity of BL21 Star WT cell lysates [1]: 20.1 (±7.7) nmol mg^−1 min^−1 | Specific activity ([1]; 30 min): 15.5 nmol/mg/min | Specific activity ([1]; 70 min): 26.4 nmol/mg/min | Average specific activity ([1]; average): 20.95 ± 7.71 nmol/mg/min
